In PubChem BioAssay (NCI):
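Cells were grown in 96-well plates and exposed to each compound for 48 hours at five concentrations; endpoints were interpolated linearly between bracketing concentrations, or set to the highest concentration if not reached. TGI marks complete inhibition of growth.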

Assays:
Experiment in all cases: growth of human tumour cells (NCI), 48 h
[1] = tested on: ACHN renal
[2] = tested on: EKVX NSCLC
[3] = tested on: HOP-62 NSCLC
[4] = tested on: K-562 leukemia
[5] = tested on: KM12 colon
[6] = tested on: MALME-3M melanoma
[7] = tested on: MCF7 breast
[8] = tested on: MDA-MB-435
[9] = tested on: NCI-H226 lung
[10] = tested on: OVCAR-3 ovarian
[11] = tested on: RXF 393 renal
[12] = tested on: SK-MEL-28 melanoma
[13] = tested on: SK-MEL-5 melanoma
[14] = tested on: SK-OV-3 ovarian
[15] = tested on: SNB-75 CNS
[16] = tested on: SR leukemia
[17] = tested on: UO-31 renal
[18] = tested on: OVCAR-4 ovarian
[19] = tested on: T-47D breast

Compound	TGI [1] [µM]	TGI [2] [µM]	TGI [3] [µM]	TGI [4] [µM]	TGI [5] [µM]	TGI [6] [µM]	TGI [7] [µM]	TGI [8] [µM]	TGI [9] [µM]	TGI [10] [µM]	TGI [11] [µM]	TGI [12] [µM]	TGI [13] [µM]	TGI [14] [µM]	TGI [15] [µM]	TGI [16] [µM]	TGI [17] [µM]	TGI [18] [µM]	TGI [19] [µM]
Cc1c(/C=N/NC(=S)N2CCCCC2)c(=O)n(-c2ccccc2)n1C	98.5	> 100	> 100	> 100	> 100	> 100	> 100	> 100	> 100	> 100	97.3	> 100	> 100	> 100	> 100	> 100	> 100		
COc1cc([C@@H]2c3cc4c(cc3[C@@H](Nc3ccc(Cl)cc3C(=O)c3ccccc3)[C@H]3COC(=O)[C@H]23)OCO4)cc(OC)c1OC	> 100	> 100	> 100	> 100		> 100	> 100			> 100		78.4	16	> 100			> 100	> 100	> 100
COc1ccc(C2Cc3cc(OC)c(OC)c(OC)c3C2)cc1 (configuration not stated)	> 100	> 100	> 100	> 100	> 100	> 100			> 100	> 100		> 100	31.3	> 100	84.8		64.8	> 100	
COC(=O)C(=O)C(C(=O)C(=O)Nc1ccc(C)cc1C)c1nc2ccc(Cl)cc2[nH]c1=O (configuration not stated)	> 100	> 100	> 100		> 100		> 100	> 100	> 100	> 100	> 100	> 100	> 100	> 100	> 100		> 100	> 100	
O=C(O)CSc1n[nH]c(-c2ccco2)n1	> 100	> 100	> 100	> 100	> 100	> 100			> 100	> 100	> 100	> 100	> 100	> 100	> 100		> 100	> 100	
Cc1sc2nc3n(c(=O)c2c1C)N=CN(c1ccc(Cl)cc1)C3	> 100	> 100	> 100	> 100	> 100	> 100		> 100	> 100	> 100	> 100	> 100	> 100	> 100	> 100	> 100	> 100	> 100	
CCCCOC/N=C(/N)NC#N	> 100	> 100	> 100	> 100	> 100	> 100			> 100	> 100	> 100	> 100	> 100	> 100	> 100	63.1	> 100	> 100	
COC(=O)/C=C(\C)CCC1SC1(C)C (configuration not stated)	> 100	> 100	> 100	> 100	> 100	> 100			> 100		> 100	> 100	> 100	> 100	> 100		> 100	> 100	
CCCc1cc(OC(=O)c2c(O)cc(OC)cc2CCC)cc(O)c1C(=O)O	80.2	86.8	35.6	> 100	> 100	42.3				61.2	53.2	70.6		68.4	73.4		35.9		
COc1ccc(-c2nc(-c3cnccn3)n(C3OC(CO)C(O)C3O)n2)cc1 (configuration not stated)	> 10	> 10		> 10	> 10	> 10	> 10	> 10	> 10	> 10				> 10	> 10	> 10	> 10	> 10	
CCCCCCCCC(O)c1ccc(/C=C\C(O)CCCC(=O)O)s1 (configuration not stated)	> 100	> 100		> 100	> 100	> 100			> 100	> 100	> 100	> 100	> 100	> 100	> 100	> 100	> 100	> 100	
CN(C)CCN1CCc2c([nH]c3ccccc23)C1c1cccnc1 (configuration not stated)	50.9	> 100	> 100	> 100	> 100					> 100	> 100	> 100	> 100	> 100	> 100	> 100	> 100	> 100	
O=C(/C=C/c1ccccc1O)c1ccccc1Cl	> 100	> 100	> 100	> 100	> 100	> 100			> 100	> 100	> 100	> 100	> 100	> 100	68.8	76.5	> 100	> 100	
O=[N+]([O-])c1cccc(Nc2nc(Cl)nc(Cl)n2)c1	> 100	> 100	> 100	> 100	> 100	> 100			> 100	> 100		> 100	> 100	> 100	> 100	> 100	> 100	> 100	
COc1ccc2[nH]c3c(c2c1)[C@H]1CCC(C(C)(C)C)C[C@H]1[C@H]1C(=O)N(c2ccccc2)C(=O)[C@@H]31 (some centres not stated)	18.4	> 100	38.3	> 91.5	> 100	40.4			81.9	> 58.9	26.5	> 100	> 100	44.9	14.6		97.5	14.4	
